Measurements taken from patent publication US11471503B2, “Use of KOR agonist in combination with MOR agonist in preparing drug for treating pain” (JIANGSU HENGRUI MEDICINE CO., LTD., priority 2017, dated 2022).
Where a SMILES comes first, the peptide text is derived from it. [ ]: non-standard residue; d: D form. The star is where a group is joined. Gly(N-(2R-Ph-propyl)) = C[C@@H](CNCC(=O)O)c1ccccc1; Piperidin1yl(4-NH2,4-COOH) = NC1(C(=O)O)CCN(*)CC1

Test system: incision pain in rats
Assay: Incision pain test in rats, mechanical pain threshold by Electronic Von Frey
Format: in vivo, rat (male Wistar)
Settings: for increase of tenderness threshold compared with the model group: i.v., 30 min after injection; for tenderness threshold: tail vein i.v. 24 h after incision, measured 30 min after injection, model group 8.91 g
Protocol: Example 3. Treatment Effect of the Combination of the KOR Agonist and the MOR Agonist of the Present Invention on Incision Pain in Rats
Compound 5 (prepared according to the method described in Example 1), and compound 20 (prepared according to the method described in Example 2). The compound dose was calculated on bases.
Experimental male Wistar rats were purchased from Shanghai Slac Laboratory Animal Co., Ltd. The rats weighed 140-160 g when purchased, and were fed at 5 rats/cage, under a condition of 12/12 hours light/dark cycle adjustment, a constant temperature of 23±1° C., a humidity of 50-60%, and free access to food and water. After purchase, the animals were subjected to an adaptive feeding for more than 3 days before the experiment was started.
Electronic Von Frey: UGO BASILE, type 38450.
Both compound 5 and compound 20 were formulated with normal saline.
The rats were randomly divided into the following groups according to the body weight: blank control group (n=10), model group (n=10) and drug-administered group (n=50). The drug-administered group was divided into the following groups: compound 20-0.03 mg/kg group (n=10), compound 5-0.3 mg/kg group (n=10), compound 5-0.1 mg/kg+compound 20-0.03 mg/kg group (n=10), compound 5-0.3 mg/kg+compound 20-0.03 mg/kg group (n=10), and compound 5-1 mg/kg+compound 20-0.03 mg/kg group (n=10). The model group and drug-administered group were subjected to an incision surgery. During the surgery, the rats were anesthetized with isoflurane. An incision (1 cm long) passing through the skin and fascia was made with a No. 10 surgical blade in the middle of the left hind paw. The skin was sutured with a 3-0 sterile silk surgical suture. The injured site was disinfected with antibiotic ointment and iodophor. The animals were returned to their original place to recover overnight. After 24 hours, the drug was injected through the tail vein, and the blank control group and the model group were administrated with normal saline two times with an interval of 15 minutes. The group administered with compound 20 alone was intravenously injected with the corresponding dose of compound 20 and the blank solvent for formulating compound 5. The group administered with compound 5 alone was intravenously injected with the corresponding dose of compound 5 and the blank solvent for formulating compound 20. […] The mechanical pain threshold of each group was measured by the Electronic Von Frey 30 minutes after the injection to evaluate the analgesic effect of the drug on the surgical incision pain and the intensity thereof.
The experimental data were expressed as mean±standard deviation (S.D.). […]

Compound | increase of tenderness threshold compared with the model group (compound 5 0.3 mg/kg alone) [%] | tenderness threshold (compound 5 0.3 mg/kg alone) [g] | increase of tenderness threshold compared with the model group (compound 20 0.03 mg/kg alone) [%] | tenderness threshold (compound 20 0.03 mg/kg alone, blank control 14.48 g) [g]
CC(C)C[C@@H](NC(=O)[C@@H](Cc1ccccc1)NC(=O)CNC[C@H](C)c1ccccc1)C(=O)N[C@H](CCCCN)C(=O)N1CCC(N)(C(=O)O)CC1 [compound 5, 4-Amino-1-((2R,5R,8R,14R)-2-(4-aminobutyl)-8-benzyl-5-isobutyl-4,7,10-trioxo-14-phenyl-3,6,9,12-tetraazapentadecan-1-oyl)piperidine-4-carboxylic acid] (H-[Gly(N-(2R-Ph-propyl))][dF][dL][dK]-{Piperidin1yl(4-NH2,4-COOH)}) | 101.1 | 17.92 | – | –
CCO[C@H]1CC[C@H](NCC[C@@]2(c3ccccn3)CCOC3(CCCC3)C2)c2ccccc21 [compound 20, (1S,4S)-4-Ethoxy-N-(2-((R)-9-(pyridin-2-yl)-6-oxaspiro[4.5]decan-9-yl)ethyl)-1,2,3,4-tetrahydronaphthalen-1-amine] | – | – | 62.3 | 14.46
